Reference: article PMC12475274, “Harnessing indole scaffolds to identify small-molecule IRE1α inhibitors modulating XBP1 mRNA splicing” (Nature Communications, 2025)
Values joined by “and” are separate entries in the source; they are usually repeats but may differ in a detail not shown here. Equal entries are not always repeated. “Also recorded” adds a separate entry of the source. Where two headings read alike, the source gives them in different places.

How the values were obtained:
[1] = molecular target: T1, phosphorylated IRE1α (p-IRE1α) (Homo sapiens, UniProt O75460); test: FRET-based IRE1α RNase activity assay, phosphorylated IRE1α; assay type: biochemical; conditions: for inhibition(%): p-IRE1a
T1 construct: Human IRE1α kinase and RNase domain (residues 547–977) was subcloned into pLIB plasmid; His tag (with TEV cleavage site) (N, cleaved yes); made in house; host or cells: Sf9 insect cells, baculovirus (Bac-to-Bac)
In short: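 Sf9-expressed IRE1α kinase-RNase domain (residues 547–977), fully phosphorylated fraction, 4 nM, preincubated with compound 30 min at RT, then 200 nM FAM/BHQ1 XBP1 RNA added in HEPES pH 7.5 buffer. Fluorescence (ex 485/em 535 nm) read kinetically for 1 h at RT; inhibition from linear slopes, IC50 by concentration-response fit.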

IRE1α = molecular target: T2, IRE1α (Homo sapiens, UniProt O75460); test: Differential scanning fluorimetry (DSF), IRE1α; assay type: binding; conditions: for IRE1 ∆Tm(°C): replicate values; for IRE1a ∆Tm: DSF, individual measurements
T2 construct: Human IRE1α kinase and RNase domain (residues 547–977) was subcloned into pLIB plasmid; His tag (with TEV cleavage site) (N, cleaved yes); made in house; host or cells: Sf9 insect cells, baculovirus (Bac-to-Bac)
Description: (§1) The DSF assay was performed in PBS buffer containing 2 mM DTT, in a total reaction volume of 20 µl with indicated compounds (final 1% DMSO) and the final concentration of 1 µM IRE1α protein and 5× SYPRO Orange fluorescent dye (5000× in DMSO, Sigma S5692). The melting curve was measured at a temperature range from 25 °C to 95 °C and in increments of 1 °C for 30 s using a Bio-Rad CFX96 Real-Time PCR detection system with the FRET scan mode. The melting temperature (Tm) was obtained by fitting the melting curve to Boltzmann sigmoidal in GraphPad Prism and the thermal shift (∆Tm) was calculated by using the equation: ∆Tm = Tm(compound) -Tm(DMSO).

p-IRE1α = molecular target: T3, p-IRE1α (Homo sapiens, UniProt O75460); test: Differential scanning fluorimetry (DSF), p-IRE1α; assay type: binding; conditions: for p-IRE1a ∆Tm(°C): individual replicate values; for p-IRE1a ∆Tm: DSF, individual measurements
T3 construct: Human IRE1α kinase and RNase domain (residues 547–977) was subcloned into pLIB plasmid; His tag (with TEV cleavage site) (N, cleaved yes); made in house; host or cells: Sf9 insect cells, baculovirus (Bac-to-Bac)
Description: as §1

[2] = FRET assay, RNase activity, mean (± SEM), read-out: p-IRE1α IC50
[3] = FRET assay, source data, unit from Fig. 3, read-out: p-IRE1a IC50, individual replicates (n1-n4)
[4] = compound 1.563 μM, Supplementary Fig. 3d/3e
[5] = compound 3.125 μM, Supplementary Fig. 3d/3e
[6] = compound 6.25 μM, Supplementary Fig. 3d/3e
[7] = compound 12.5 μM, Supplementary Fig. 3d/3e
[8] = compound 25 μM, Supplementary Fig. 3d/3e
[9] = compound 50 μM, Supplementary Fig. 3d/3e
[10] = compound 100 μM, Supplementary Fig. 3d/3e
[11] = FRET assay, read-out: p-IRE1α IC50 (RNase activity)

T3 sequence (O75460 547-977): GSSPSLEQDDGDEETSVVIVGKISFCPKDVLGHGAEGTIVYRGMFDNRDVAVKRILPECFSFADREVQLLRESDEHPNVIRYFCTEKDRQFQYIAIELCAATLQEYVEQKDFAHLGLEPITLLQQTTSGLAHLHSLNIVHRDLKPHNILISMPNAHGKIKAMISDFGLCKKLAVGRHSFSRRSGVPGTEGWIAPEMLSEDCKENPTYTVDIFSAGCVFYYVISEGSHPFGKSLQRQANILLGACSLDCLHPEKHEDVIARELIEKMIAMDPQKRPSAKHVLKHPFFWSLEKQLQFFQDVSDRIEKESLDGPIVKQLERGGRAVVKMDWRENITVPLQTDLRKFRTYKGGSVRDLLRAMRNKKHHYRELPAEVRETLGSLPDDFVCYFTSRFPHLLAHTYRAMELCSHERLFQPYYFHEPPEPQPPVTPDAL
T1 sequence (O75460 547-977): as above
T2 sequence (O75460 547-977): as above

## CCOC(=O)Nc1cccc2c(Oc3ncccc3-c3ccnc(N[C@H]4CCCNC4)n3)c(C)ccc12 [Compound G1749, reference compound]
[1]
  effect on p-IRE1α RNase activity in the FRET assay: inhibiting p-IRE1α; also recorded: inhibit the p-IRE1α RNase activity
[1]; 5.55556 μM
  inhibition(%): 93.9541% and 94.7061% and 91.8428% and 92.9515%
[1]; 16.6667 μM
  inhibition(%): 92.2815% and 93.8095% and 92.7972% and 92.696%
[1]; 50 μM
  inhibition(%): 92.1465% and 91.4042% and 91.8332% and 89.3845%

## COc1ccc2c(c1)c(CCC(=O)O)c(C)n2C(=O)c1ccc2ccccc2c1 [IA34]
[1]; FRET assay, RNase activity, mean (± SEM)
  p-IRE1α IC50: IC₅₀ not reached
[1]; [2]
  IC50: > 20000 nM
[1]; IA34 0.000847 μM, Supplementary Fig. 3b, replicate values
  inhibition(%): 2.43% and -1.86% and 1.39%
[1]; IA34 0.00254 μM, Supplementary Fig. 3b, replicate values
  inhibition(%): -5.52% and -18.14% and 21.30% and 14.33%
[1]; IA34 0.007621 μM, Supplementary Fig. 3b, replicate values
  inhibition(%): 0.79% and -13.95% and -1.17% and 1.14%
[1]; IA34 0.022862 μM, Supplementary Fig. 3b, replicate values
  inhibition(%): 1.11% and -4.73% and 39.51% and 0.29%
[1]; IA34 0.068587 μM, Supplementary Fig. 3b, replicate values
  inhibition(%): -18.24% and -15.02% and -11.07% and -8.20%
[1]; IA34 0.205761 μM, Supplementary Fig. 3b, replicate values
  inhibition(%): -19.34% and -16.85% and 12.47% and -7.35%
[1]; IA34 0.617284 μM, Supplementary Fig. 3b, replicate values
  inhibition(%): 15.53% and 10.67% and -18.52% and -10.41%
[1]; IA34 1.85185 μM, Supplementary Fig. 3b, replicate values
  inhibition(%): -19.37% and -18.05% and -6.66% and -19.44%
[1]; IA34 5.55556 μM, Supplementary Fig. 3b, replicate values
  inhibition(%): 14.49% and 0.73% and 11.46% and -10.03%
[1]; IA34 16.6667 μM, Supplementary Fig. 3b, replicate values
  inhibition(%): 26.07% and 13.29% and -8.49% and -17.54%
[1]; IA34 50 μM, Supplementary Fig. 3b, replicate values
  inhibition(%): -20.79% and 2.08% and 7.61% and 4.39%
IRE1α
  stabilization of IRE1α in DSF: did not show any detectable changes
p-IRE1α; compound 6.25 μM
  p-IRE1a ∆Tm(°C): 0.04 °C and -0.01 °C
p-IRE1α; compound 12.5 μM
  p-IRE1a ∆Tm(°C): 0 °C and -0.08 °C
p-IRE1α; compound 25 μM
  p-IRE1a ∆Tm(°C): 0.02 °C and 0.03 °C
p-IRE1α; compound 50 μM
  p-IRE1a ∆Tm(°C): 0.03 °C and 0.12 °C

## Cc1c(CCC(=O)O)c2cc(Cl)ccc2n1C(=O)c1ccccc1 [IA141]
[1]; [2]
  IC50: 82 nM and 80 nM
[1]; [3]
  IC50: 98.9 nM and 83.6 nM and 62.4 nM
IRE1α
  stabilization of IRE1α in DSF: concentration-dependently stabilized
IRE1α; [4]
  IRE1 ∆Tm(°C): 0.63 °C and 0.81 °C and 0.65 °C and 0.58 °C
IRE1α; [5]
  IRE1 ∆Tm(°C): 1.12 °C and 1.18 °C and 0.97 °C and 1.08 °C
IRE1α; [6]
  IRE1 ∆Tm(°C): 1.79 °C and 1.73 °C and 1.77 °C and 1.66 °C
IRE1α; [7]
  IRE1 ∆Tm(°C): 2.82 °C and 2.70 °C and 2.75 °C and 2.68 °C
IRE1α; [8]
  IRE1 ∆Tm(°C): 3.71 °C and 3.59 °C and 3.83 °C and 3.70 °C
IRE1α; [9]
  IRE1 ∆Tm(°C): 4.64 °C and 4.50 °C and 4.51 °C and 4.69 °C
IRE1α; [10]
  IRE1 ∆Tm(°C): 5.27 °C (2×) and 5.25 °C and 5.36 °C
p-IRE1α; compound 1.563 μM
  p-IRE1a ∆Tm(°C): 0.12 °C and -0.00583 °C and 0.32 °C and -0.0158 °C
p-IRE1α; compound 3.125 μM
  p-IRE1a ∆Tm(°C): 0.72 °C and 0.27 °C (2×) and 0.32 °C
p-IRE1α; compound 6.25 μM
  p-IRE1a ∆Tm(°C): 0.99 °C and 0.72 °C and 0.76 °C and 0.85 °C
p-IRE1α; compound 12.5 μM
  p-IRE1a ∆Tm(°C): 1.57 °C and 1.31 °C and 1.36 °C and 1.19 °C
p-IRE1α; compound 25 μM
  p-IRE1a ∆Tm(°C): 2.22 °C and 2.10 °C and 1.74 °C and 2.25 °C
p-IRE1α; compound 50 μM
  p-IRE1a ∆Tm(°C): 2.87 °C and 2.43 °C and 2.53 °C and 2.76 °C
p-IRE1α; compound 100 μM
  p-IRE1a ∆Tm(°C): 3.32 °C and 3.36 °C and 3.61 °C and 3.33 °C

## Cc1ccc2c(c1)c(CCC(=O)O)c(C)n2C(=O)c1ccccc1 [IA147]
[1]; [2]
  IC50: 133 nM and 130 nM
[1]; [3]
  IC50: 154 nM and 127 nM and 116 nM
IRE1α
  stabilization of IRE1α in DSF: concentration-dependently stabilized
IRE1α; [4]
  IRE1 ∆Tm(°C): 0.4825 °C (2×) and 0.3925 °C and 0.4425 °C
IRE1α; [5]
  IRE1 ∆Tm(°C): 0.6325 °C and 0.6525 °C and 0.6425 °C and 0.5925 °C
IRE1α; [6]
  IRE1 ∆Tm(°C): 1.0225 °C and 1.5025 °C and 1.2125 °C and 1.1425 °C
IRE1α; [7]
  IRE1 ∆Tm(°C): 1.7325 °C and 2.0725 °C and 1.7925 °C (2×)
IRE1α; [8]
  IRE1 ∆Tm(°C): 2.7025 °C (2×) and 2.5925 °C and 2.5225 °C
IRE1α; [9]
  IRE1 ∆Tm(°C): 3.6525 °C and 3.6025 °C and 3.6325 °C and 3.5325 °C
IRE1α; [10]
  IRE1 ∆Tm(°C): 4.5725 °C and 4.5025 °C and 4.4925 °C and 4.4625 °C
p-IRE1α; compound 1.563 μM
  p-IRE1a ∆Tm(°C): 0.22 °C and 0.13 °C and 0.08 °C and 0.11 °C
p-IRE1α; compound 3.125 μM
  p-IRE1a ∆Tm(°C): 0.29 °C (2×) and 0.42 °C and 0.19 °C
p-IRE1α; compound 6.25 μM
  p-IRE1a ∆Tm(°C): 0.58 °C and 0.78 °C and 0.38 °C and 0.50 °C
p-IRE1α; compound 12.5 μM
  p-IRE1a ∆Tm(°C): 0.95 °C and 0.90 °C and 0.84 °C and 1.22 °C
p-IRE1α; compound 25 μM
  p-IRE1a ∆Tm(°C): 1.52 °C and 1.79 °C and 1.41 °C and 1.95 °C
p-IRE1α; compound 50 μM
  p-IRE1a ∆Tm(°C): 2.33 °C and 2.18 °C and 1.98 °C and 2.60 °C
p-IRE1α; compound 100 μM
  p-IRE1a ∆Tm(°C): 3.18 °C and 2.83 °C and 2.92 °C and 3.09 °C

## Cc1ccc2c(NS(=O)(=O)c3ccccc3Cl)cccc2c1Oc1ncccc1-c1ccnc(N[C@H]2CCCNC2)n1 [KIRA8]
[1]
  effect on p-IRE1α RNase activity in the FRET assay: inhibit the p-IRE1α RNase activity
[1]; [2]
  IC50: 3 nM

## CCOC(=O)CCc1c(C)n(C(=O)c2ccccc2)c2ccc(Br)cc12 [IAPD1]
[1]
  effect on p-IRE1α RNase activity in the FRET assay: did not inhibit the RNase activity
[1]; 0.00254 μM
  inhibition(%): -4.888% and 2.526% and -4.055% and 4.733%
[1]; 16.6667 μM
  inhibition(%): -1.806% and 4.317% and -3.888% and 0.777%
[1]; 50 μM
  inhibition(%): 0.943% and 1.151% and 1.193% and 2.068%

## COc1ccc2c(c1)c(CCC(=O)O)c(C)n2C(=O)c1ccccc1 [IA64]
[1]; [2]
  IC50: 37.4 nM
[1]; [11]
  IC50: 30 nM
[1]; [3]
  IC50: 61 nM and 17 nM and 34 nM and 26 nM
IRE1α
  stabilization of IRE1α in DSF: concentration-dependently stabilized
IRE1α; compound 6.25 μM, Supplementary Fig. 3c
  IRE1 ∆Tm(°C): 1.2 °C and 1.21 °C
IRE1α; compound 12.5 μM, Supplementary Fig. 3c
  IRE1 ∆Tm(°C): 1.94 °C and 2.05 °C
IRE1α; compound 25 μM, Supplementary Fig. 3c
  IRE1 ∆Tm(°C): 2.82 °C and 2.92 °C
IRE1α; compound 50 μM, Supplementary Fig. 3c
  IRE1 ∆Tm(°C): 3.88 °C
p-IRE1α; compound 6.25 μM
  p-IRE1a ∆Tm(°C): 0.67 °C and 0.63 °C
p-IRE1α; compound 12.5 μM
  p-IRE1a ∆Tm(°C): 1.12 °C and 1.05 °C
p-IRE1α; compound 25 μM
  p-IRE1a ∆Tm(°C): 1.46 °C and 1.49 °C
p-IRE1α; compound 50 μM
  p-IRE1a ∆Tm(°C): 2.16 °C and 2.21 °C

## Cc1c(CCC(=O)O)c2cc(Br)ccc2n1C(=O)c1ccccc1 [IA107]
[1]; [2]
  IC50: 9.31 nM
[1]; [11]
  IC50: 9 nM
[1]; [3]
  IC50: 11.1 nM and 10.2 nM and 6.6 nM
IRE1α
  stabilization of IRE1α in DSF: concentration-dependently stabilized
IRE1α; compound 25 μM
  IRE1a ∆Tm: 4.2925 °C (2×) and 4.2325 °C and 4.2625 °C
IRE1α; compound 50 μM
  IRE1a ∆Tm: 5.1825 °C and 5.3725 °C and 5.2525 °C and 5.2825 °C
IRE1α; compound 100 μM
  IRE1a ∆Tm: 5.7825 °C and 5.7925 °C (2×) and 5.8625 °C
p-IRE1α
  stabilization of p-IRE1α in DSF: stabilized phosphorylated IREα concentration-dependently
p-IRE1α; compound 25 μM
  p-IRE1a ∆Tm: 1.94 °C and 2.53 °C and 2.1 °C and 2.61 °C
p-IRE1α; compound 50 μM
  p-IRE1a ∆Tm: 3.27 °C and 3.18 °C and 2.63 °C and 3 °C
p-IRE1α; compound 100 μM
  p-IRE1a ∆Tm: 3.1 °C and 3.74 °C and 2.72 °C and 2.61 °C
